{"source": "PubChem BioAssay (NCI)", "assay_in_all_cases": "growth of human tumour cells (NCI), 48 h", "key": {"[1]": {"tested_on": "NCI-H226 lung"}, "[2]": {"tested_on": "HCT-15 colon"}, "[3]": {"tested_on": "NCI-H460 lung"}, "[4]": {"tested_on": "A549 NSCLC"}, "[5]": {"tested_on": "SR leukemia"}, "[6]": {"tested_on": "U251 CNS"}, "[7]": {"tested_on": "OVCAR-8 ovarian"}, "[8]": {"tested_on": "OVCAR-5 ovarian"}, "[9]": {"tested_on": "HCC-2998 colon"}, "[10]": {"tested_on": "SK-MEL-28 melanoma"}, "[11]": {"tested_on": "786-0 renal"}, "[12]": {"tested_on": "SF-539 CNS"}, "[13]": {"tested_on": "SNB-19 CNS"}, "[14]": {"tested_on": "LOX IMVI melanoma"}, "[15]": {"tested_on": "SK-OV-3 ovarian"}, "[16]": {"tested_on": "NCI-H23 lung"}, "[17]": {"tested_on": "UO-31 renal"}, "[18]": {"tested_on": "MALME-3M melanoma"}, "[19]": {"tested_on": "HOP-92 NSCLC"}, "[20]": {"tested_on": "T-47D breast"}, "[21]": {"tested_on": "EKVX NSCLC"}, "[22]": {"tested_on": "BT-549 breast"}, "[23]": {"tested_on": "HL-60(TB) leukemia"}, "[24]": {"tested_on": "SF-268 CNS"}, "[25]": {"tested_on": "UACC-62 melanoma"}, "[26]": {"tested_on": "IGROV1 ovarian"}, "[27]": {"tested_on": "UACC-257 melanoma"}, "[28]": {"tested_on": "RXF 393 renal"}}, "note": "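Cultured in 96-well plates, cells were exposed to test compound for 48 hours across five concentrations. GI50: concentration for 50% inhibition of growth. TGI: total growth inhibition.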", "data": [{"compound": "C=C1C(=O)O[C@H]2[C@H]1CC/C(COC(=O)NCC(C)c1ccc(CC(C)C)cc1)=C\\CC[C@@]1(C)O[C@@H]21", "note": "(stereo partly specified)", "values": [{"measurement": "GI50", "setting": "[1]", "value": 1.05, "unit": "µM"}, {"measurement": "TGI", "setting": "[1]", "value": 4.59, "unit": "µM"}, {"measurement": "GI50", "setting": "[2]", "value": 0.595, "unit": "µM"}, {"measurement": "TGI", "setting": "[2]", "value": 1.27, "unit": "µM"}, {"measurement": "GI50", "setting": "[3]", "value": 4.69, "unit": "µM"}, {"measurement": "TGI", "setting": "[3]", "value": 10, "unit": "µM"}, {"measurement": "GI50", "setting": "[4]", "value": 6.46, "unit": "µM"}, {"measurement": "TGI", "setting": "[4]", "value": 11.8, "unit": "µM"}, {"measurement": "GI50", "setting": "[5]", "value": 0.678, "unit": "µM"}, {"measurement": "TGI", "setting": "[5]", "value": 3.6, "unit": "µM"}, {"measurement": "GI50", "setting": "[6]", "value": 4.32, "unit": "µM"}, {"measurement": "TGI", "setting": "[6]", "value": 8.7, "unit": "µM"}, {"measurement": "GI50", "setting": "[7]", "value": 1.94, "unit": "µM"}, {"measurement": "TGI", "setting": "[7]", "value": 6.87, "unit": "µM"}, {"measurement": "GI50", "setting": "[8]", "value": 3.56, "unit": "µM"}, {"measurement": "TGI", "setting": "[8]", "value": 7.73, "unit": "µM"}, {"measurement": "GI50", "setting": "[9]", "value": 2.17, "unit": "µM"}, {"measurement": "TGI", "setting": "[9]", "value": 6.72, "unit": "µM"}, {"measurement": "GI50", "setting": "[10]", "value": 1.6, "unit": "µM"}, {"measurement": "TGI", "setting": "[10]", "value": 5.52, "unit": "µM"}, {"measurement": "GI50", "setting": "[11]", "value": 0.582, "unit": "µM"}, {"measurement": "TGI", "setting": "[11]", "value": 1.1, "unit": "µM"}, {"measurement": "GI50", "setting": "[12]", "value": 3.71, "unit": "µM"}, {"measurement": "TGI", "setting": "[12]", "value": 7.71, "unit": "µM"}, {"measurement": "GI50", "setting": "[13]", "value": 3.82, "unit": "µM"}, {"measurement": "TGI", "setting": "[13]", "value": 7.95, "unit": "µM"}, {"measurement": "GI50", "setting": "[14]", "value": 0.506, "unit": "µM"}, {"measurement": "TGI", "setting": "[14]", "value": 1, "unit": "µM"}, {"measurement": "GI50", "setting": "[15]", "value": 5.94, "unit": "µM"}, {"measurement": "TGI", "setting": "[15]", "value": 11, "unit": "µM"}, {"measurement": "GI50", "setting": "[16]", "value": 3.69, "unit": "µM"}, {"measurement": "TGI", "setting": "[16]", "value": 8.69, "unit": "µM"}, {"measurement": "GI50", "setting": "[17]", "value": 0.474, "unit": "µM"}, {"measurement": "TGI", "setting": "[17]", "value": 0.909, "unit": "µM"}, {"measurement": "GI50", "setting": "[18]", "value": 0.926, "unit": "µM"}, {"measurement": "TGI", "setting": "[18]", "value": 2.89, "unit": "µM"}, {"measurement": "GI50", "setting": "[19]", "value": 0.545, "unit": "µM"}, {"measurement": "TGI", "setting": "[19]", "value": 1.5, "unit": "µM"}, {"measurement": "GI50", "setting": "[20]", "value": 2.2, "unit": "µM"}, {"measurement": "TGI", "setting": "[20]", "value": 7.83, "unit": "µM"}, {"measurement": "GI50", "setting": "[21]", "value": 3.85, "unit": "µM"}, {"measurement": "TGI", "setting": "[21]", "value": 7.95, "unit": "µM"}, {"measurement": "GI50", "setting": "[22]", "value": 0.775, "unit": "µM"}, {"measurement": "TGI", "setting": "[22]", "value": 2.25, "unit": "µM"}, {"measurement": "GI50", "setting": "[23]", "value": 0.786, "unit": "µM"}, {"measurement": "TGI", "setting": "[23]", "value": 2.83, "unit": "µM"}, {"measurement": "GI50", "setting": "[24]", "value": 1.82, "unit": "µM"}, {"measurement": "TGI", "setting": "[24]", "value": 6.59, "unit": "µM"}, {"measurement": "GI50", "setting": "[25]", "value": 0.751, "unit": "µM"}, {"measurement": "TGI", "setting": "[25]", "value": 2.35, "unit": "µM"}, {"measurement": "GI50", "setting": "[26]", "value": 0.551, "unit": "µM"}, {"measurement": "TGI", "setting": "[26]", "value": 1.18, "unit": "µM"}, {"measurement": "GI50", "setting": "[27]", "value": 5.01, "unit": "µM"}, {"measurement": "TGI", "setting": "[27]", "value": 9.89, "unit": "µM"}, {"measurement": "GI50", "setting": "[28]", "value": 0.559, "unit": "µM"}, {"measurement": "TGI", "setting": "[28]", "value": 1.17, "unit": "µM"}]}]}
